Where two headings read alike, the source gives them in different places.
What was measured:
duodenal ulcers = assay: effect on duodenal ulcers; settings: in vivo
convulsions = settings: in vivo
[1] = system: hypothermia induced by apomorphine; assay: inhibition of hypothermia induced by apomorphine (apomorphine test); settings: Mus musculus, po, 1 h, read-out: Hypothermia inhibition from Apo16: ED-50
[2] = acute oral toxicity (LD-50); settings: mouse, in vivo
anticholinergic effect = settings: in vivo
blood pressure = settings: in vivo
cardio-toxic = settings: in vivo
motor activity = settings: in vivo
[3] = Swiss male mice, after 14 days, read-out: LD-50

SMILES	ED50 [1]	LD50 at 336 h [2, 3]	also measured
CN(C)CC(=O)N1c2ccccc2N(C)S(=O)(=O)c2ccccc21 [Compound 1, 6-Methyl-6,11-dihydro-11-(N,N-dimethylaminoacetyl)dibenzo[c,f][1,2,5]thiadiazepine 5,5-dioxide]	4 to 15 mg/kg	1500 to 2000 mg/kg	duodenal ulcers (duodenal ulcers): reduces duodenal ulcers; convulsions (convulsions): does not induce convulsions; LD50 at 336 h ([2]; mice, read-out: oral LD-50): 1920 mg/kg; anticholinergic effect (anticholinergic effect): induces very weak anticholinergic effects; blood pressure (blood pressure): does not alter the blood pressure; cardio-toxicity (cardio-toxic): is not cardio-toxic; motor activity (motor activity): does not alter the motor activity
CNCC(=O)N1c2ccccc2N(C)S(=O)(=O)c2ccccc21 [Compound 2]	4 to 15 mg/kg	750 to 1000 mg/kg	
CCN(CC)CC(=O)N1c2ccccc2N(C)S(=O)(=O)c2ccccc21 [Compound 3, 6-Methyl-6,11-dihydro-11-(N,N-diethylamino-acetyl)dibenzo[c,f][1,2,5]thiadiazepine 5,5-dioxide]	15 to 25 mg/kg	> 2000 mg/kg	
CN(C)CCC(=O)N1c2ccccc2N(C)S(=O)(=O)c2ccccc21.Cl [Compound 4, 6-Methyl-6,11-dihydro-11-[3-(N,N-dimethylamino)propionyl]dibenzo[c,f][1,2,5]thiadiazepine 5,5-dioxide hydrochloride]	15 to 25 mg/kg	500 to 700 mg/kg	
CN(C)CC(=O)N1c2ccc(Cl)cc2N(C)S(=O)(=O)c2ccccc21 [Compound 5, 8-chloro-6-methyl-6,11-dihydro-11-(N,N-dimethylamino-acethyl)-dibenzo[c,f][1,2,5]thiadiazepine 5,5-dioxide]	15 to 25 mg/kg	1000 to 1500 mg/kg	
Cc1ccc2c(c1)N(C(=O)CN(C)C)c1ccccc1S(=O)(=O)N2C [Compound 6, 6,9-dimethyl-6,11-dihydro-11-(N,N-dimethylaminoacetyl)-dibenzo[c,f][1,2,5]thiadiazepine 5,5-dioxide]	4 to 15 mg/kg	1500 to 2000 mg/kg	
CN(C)CCCN1c2ccccc2CCc2ccccc21 [imipramine, reference compound]	4 to 15 mg/kg		
CN(C)CCCN1c2ccccc2N(C)S(=O)(=O)c2ccccc21 [reference compound]			convulsions (convulsions): induces convulsions; LD50 at 336 h ([2]; mice, read-out: oral LD-50): 655 mg/kg; anticholinergic effect (anticholinergic effect): possesses anticholinergic effect; blood pressure (blood pressure): increases the blood pressure; motor activity (motor activity): increases the motor activity

Source: US5011833A, “Novel derivatives of 6,11-dihydro-dibenzo(C,F)(1,2,5)-thiadiazepine 5,5-dioxide, salts thereof and appropriate processes for the preparation thereof” (A. Menarini Industrie Farmaceutiche Riunite, priority 1988, dated 1991)
